Common to all, as to type: cell-based, human
The subject of one assay is sAPPβ. Briefly: sAPPβ in FAD1 iPS cell-derived nerve cells (secondary screening). Further details: sAPPβ: scale not given here. The note with it: secondary screening, FAD1 iPS cell-derived nerve cells. How it is done: (§1) To further study reproducibility of the candidate drugs obtained by the primary screening, secondary screening was conducted. In addition to Aβ40, Aβ42, Aβ42/40 ratio, Aβ38, Aβ43, sAPPα, sAPPβ were also studied and each numerical value was obtained.

The next assay deals with Aβ42/40 ratio. Put plainly: Aβ42/40 ratio in FAD1 iPS cell-derived nerve cells (primary/secondary screening, dose dependency). The conditions noted are these: secondary screening.
Excerpt: (§2) To perform induction from iPS cells to the cerebral cortex nerve early and with high reproducibility, iPS cells introduced with human Neurogenin 2 gene (NGN2) linked to doxycycline-inducible promoter by using PiggyBac were used (FIG. 1a, FIG. 1b, FIG. 4a and FIG. 4b). IPS cells prepared from 4 patients with familial Alzheimer's disease (FAD), 2 patients with sporadic Alzheimer's disease (SAD) and 4 healthy individuals (HC) were used. The iPS cells were established by the method described in Okita K et al., Nature.
(§3) Structural formulas (those in the form of salt or halide are also described as free form) and the general names of the candidate compounds are shown in Table 1.
as §1

The test system of the next assay is Aβ42. Briefly: Aβ42 in FAD1 iPS cell-derived nerve cells (primary/secondary screening, dose dependency). The note with it: secondary screening, FAD1 iPS cell-derived nerve cells, numerical value (Aβ change rate).
Excerpt: as §2, §3, §1

Another assay has as its system Aβ38. Briefly: Aβ38 in FAD1 iPS cell-derived nerve cells (secondary screening). Further details: scale not given here. How it is done:
as §1

The next assay concerns Aβ43. Put plainly: Aβ43 in FAD1 iPS cell-derived nerve cells (secondary screening). Further details: scale not given here. How it is done:
as §1

In the next assay the test system is sAPPα. Briefly: sAPPα in FAD1 iPS cell-derived nerve cells (secondary screening). The arrangement: scale not given here. The conditions noted are these: secondary screening, FAD1 iPS cell-derived nerve cells. How it is done: as §1

Compound `Cc1cc2cc3c(C)cc(=O)oc3c(C)c2o1` [compound 91, TRIOXSALEN] returned a sAPPβ with sAPPβ of 1.02. In the assay on Aβ42/40 ratio, the “Ratio Aβ42/40” value stood at 0.95. In the assay with Aβ42, the Aβ42 is listed as 0.84. This compound also registered an Aβ38 with Aβ38 of 0.97. Moreover, the Aβ43 in the assay on Aβ43 came to 1.01. The compound also had a sAPPα in the assay with sAPPα of 0.82.

Regarding `O=C1CCc2cc(OCCCCc3nnnn3C3CCCCC3)ccc2N1` [compound 107, CILOSTAZOL], the sAPPβ in the assay with sAPPβ is reported as 0.68. In the assay with Aβ42/40 ratio, the “Ratio Aβ42/40” value amounted to 0.86. In the assay on Aβ42, this compound registered an Aβ42 of 0.85. Moreover, in the assay on Aβ38, the Aβ38 came out at 1.01. Further, the Aβ43 in the assay with Aβ43 stood at 0.82. The same compound displayed a sAPPα in the assay on sAPPα of 0.78.

In the case of `Oc1ccc(Cl)cc1Cc1cc(Cl)ccc1O` [compound 94, DICHLOROPHENE], in the assay with sAPPβ, the sAPPβ is recorded as 0.85. The “Ratio Aβ42/40” value in the assay with Aβ42/40 ratio is on record as 0.89. In addition, the Aβ42 in the assay with Aβ42 stood at 0.79. In the assay with Aβ38, this compound gave an Aβ38 of 0.94. Besides, the Aβ43 with Aβ43 is recorded as 0.87. In the assay with sAPPα, this compound registered a sAPPα of 0.78.

In the assay on sAPPβ, `O=S(=O)(O)c1cc(I)c(O)c2ncccc12` [compound 35, CHINIOFON] displayed a sAPPβ of 0.6. Besides, the “Ratio Aβ42/40” value with Aβ42/40 ratio is reported as 0.86. Also, the Aβ42 with Aβ42 was determined as 0.83. Further, the Aβ38 in the assay with Aβ38 stood at 1.05. This compound came in with an Aβ43 in the assay on Aβ43 of 0.79. Further, the sAPPα in the assay on sAPPα is listed as 0.71.

Regarding `Cc1c(C(N)=O)cc([N+](=O)[O-])cc1[N+](=O)[O-]` [compound 95, DINITOLMIDE], the sAPPβ in the assay on sAPPβ stood at 1.02. Further, the “Ratio Aβ42/40” value in the assay on Aβ42/40 ratio came to 0.95. The Aβ42 in the assay with Aβ42 was 0.9. In the assay on Aβ38, this compound showed an Aβ38 of 1. For the same compound, the Aβ43 in the assay with Aβ43 amounted to 0.98. In addition, in the assay on sAPPα, the sAPPα is reported as 0.95.

Take `O=C(NC(Cc1cc(=O)[nH]c2ccccc12)C(=O)O)c1ccc(Cl)cc1` (stereo not drawn) [compound 71, REBAMIPIDE]: in the assay with sAPPβ, the sAPPβ is listed as 0.66. The “Ratio Aβ42/40” value in the assay on Aβ42/40 ratio worked out at 0.85. The same compound registered an Aβ42 with Aβ42 of 0.79. In addition, in the assay on Aβ38, the Aβ38 is 0.97. In the assay on Aβ43, this compound yielded an Aβ43 of 0.78. This compound also showed a sAPPα in the assay on sAPPα of 0.8.

In turn, `Cc1ncc(CNC(=O)N(CCCl)N=O)c(N)n1` [compound 83, NIMUSTINE] came in with a sAPPβ in the assay with sAPPβ of 0.89. Further, the “Ratio Aβ42/40” value with Aβ42/40 ratio worked out at 0.86. This compound gave an Aβ42 in the assay on Aβ42 of 0.84. Further, the Aβ38 with Aβ38 came to 1.04. In the assay on Aβ43, this compound had an Aβ43 of 0.89. This compound had a sAPPα in the assay on sAPPα of 0.81.

In turn, `Cn1c(=O)c2[nH]c(Cl)nc2n(C)c1=O` [compound 124, 8-chlorotheophylline] had a sAPPβ in the assay with sAPPβ of 1.02. Further, the “Ratio Aβ42/40” value in the assay with Aβ42/40 ratio is 1.01. The Aβ42 in the assay on Aβ42 is 0.98. In the assay with Aβ38, this compound had an Aβ38 of 1.06. In the assay on Aβ43, this compound had an Aβ43 of 0.97. Moreover, the sAPPα in the assay with sAPPα is listed as 0.97.

Compound `C[C@@H]1O[C@@H](OC[C@H]2O[C@@H](Oc3c(-c4ccc(OCCO)c(OCCO)c4)oc4cc(OCCO)cc(O)c4c3=O)[C@H](O)[C@@H](O)[C@@H]2O)[C@H](O)[C@H](O)[C@H]1O` [compound 110, TROXERUTIN] came in with a sAPPβ with sAPPβ of 0.51. Besides, in the assay with Aβ42/40 ratio, the “Ratio Aβ42/40” value is recorded as 0.93. In the assay on Aβ42, this compound came in with an Aβ42 of 0.88. In the assay on Aβ38, this compound had an Aβ38 of 0.97. Also, in the assay on Aβ43, the Aβ43 is recorded as 0.95. In the assay with sAPPα, this compound had a sAPPα of 0.74.

As for `CNC(=C[N+](=O)[O-])NCCSCc1csc(CN(C)C)n1` [compound 78, NIZATIDINE], the sAPPβ with sAPPβ is 1.29. Further, in the assay with Aβ42/40 ratio, the “Ratio Aβ42/40” value is 0.98. Further, the Aβ42 in the assay on Aβ42 was 1.04. The same compound had an Aβ38 with Aβ38 of 1.3. This compound came in with an Aβ43 in the assay with Aβ43 of 1.15. In the assay with sAPPα, this compound returned a sAPPα of 0.97.

Compound `Nc1ccc(S(=O)(=O)c2ccc(N)cc2)cc1` [compound 120, DAPSONE] came in with a sAPPβ with sAPPβ of 0.6. Moreover, the “Ratio Aβ42/40” value in the assay with Aβ42/40 ratio is on record as 0.84. The same compound displayed an Aβ42 in the assay on Aβ42 of 0.83. In the assay on Aβ38, the Aβ38 stood at 1.06. The Aβ43 in the assay with Aβ43 amounted to 0.8. The same compound came in with a sAPPα with sAPPα of 0.74.

For the compound `c1ccc(-c2ccc(C(c3ccccc3)n3ccnc3)cc2)cc1` (stereo not drawn) [compound 27, BIFONAZOLE], the sAPPβ in the assay on sAPPβ turned out to be 1.19. Also, in the assay with Aβ42/40 ratio, the “Ratio Aβ42/40” value came to 0.84. In the assay with Aβ42, this compound displayed an Aβ42 of 0.84. This compound registered an Aβ38 in the assay with Aβ38 of 1.06. Also, the Aβ43 with Aβ43 was determined as 0.99. Also, the sAPPα with sAPPα came to 1.04.

In turn, `CC1=NS(=O)(=O)c2cc(Cl)ccc2N1` [compound 125, DIAZOXIDE] had a sAPPβ in the assay on sAPPβ of 0.84. For the same compound, in the assay on Aβ42/40 ratio, the “Ratio Aβ42/40” value turned out to be 0.97. In the assay with Aβ42, this compound yielded an Aβ42 of 0.92. In the assay on Aβ38, this compound yielded an Aβ38 of 1.08. In the assay on Aβ43, this compound gave an Aβ43 of 0.9. In the assay with sAPPα, the sAPPα came to 0.84.

With `CCn1cc(C(=O)O)c(=O)c2cnc(N3CCCC3)nc21` [compound 69, PIROMIDIC ACID], the sAPPβ with sAPPβ is given as 0.69. The “Ratio Aβ42/40” value in the assay with Aβ42/40 ratio is given as 0.86. Also, in the assay with Aβ42, the Aβ42 came out at 0.78. Besides, the Aβ38 in the assay with Aβ38 is on record as 1.01. The Aβ43 in the assay on Aβ43 stood at 0.79. For the same compound, the sAPPα in the assay on sAPPα came out at 0.86.

Compound `CCN(CC)C(=S)SSC(=S)N(CC)CC` [compound 112] had a sAPPβ in the assay with sAPPβ of 0.89. For the same compound, the “Ratio Aβ42/40” value in the assay on Aβ42/40 ratio was 0.97. In the assay on Aβ42, this compound showed an Aβ42 of 0.91. Moreover, the Aβ38 in the assay on Aβ38 was found to be 1.1. Moreover, the Aβ43 in the assay with Aβ43 is recorded as 0.98. Moreover, in the assay on sAPPα, the sAPPα is 0.78.

The compound `C[C@H](CCC(=O)O)[C@H]1CC[C@H]2[C@@H]3C(=O)C[C@@H]4CC(=O)CC[C@]4(C)[C@H]3CC(=O)[C@]12C` [compound 103, DEHYDROCHOLIC ACID] showed a sAPPβ with sAPPβ of 0.78. In addition, the “Ratio Aβ42/40” value in the assay on Aβ42/40 ratio amounted to 0.99. In the assay on Aβ42, this compound gave an Aβ42 of 0.95. For the same compound, the Aβ38 in the assay with Aβ38 was found to be 1.09. The compound further gave an Aβ43 in the assay on Aβ43 of 1.01. This compound also showed a sAPPα in the assay on sAPPα of 0.75.

For the compound `CN1[C@@H]2CC[C@@H]1CC(OC(=O)C(O)c1ccccc1)C2` (stereo partly drawn) [compound 16, HOMATROPINE], in the assay with sAPPβ, the sAPPβ stood at 1.24. In the assay with Aβ42, this compound had an Aβ42 of 1.04. Also, in the assay on Aβ38, the Aβ38 stood at 1.22. Moreover, the Aβ43 in the assay on Aβ43 worked out at 1.09. Moreover, in the assay with sAPPα, the sAPPα was 1.15.

Take `O=C(O)COCCN1CCN([C@H](c2ccccc2)c2ccc(Cl)cc2)CC1` [compound 30, LEVOCETIRIZINE]: in the assay on sAPPβ, the sAPPβ was found to be 0.93. This compound had an Aβ42 with Aβ42 of 0.76. For the same compound, the Aβ38 with Aβ38 was 0.98. Moreover, in the assay with Aβ43, the Aβ43 was 0.85. Also, the sAPPα with sAPPα stood at 0.93.

In the assay on sAPPβ, `CCN(CC)CCOC(=O)C1(C2CCCCC2)CCCCC1` [compound 104, DICYCLOMINE] showed a sAPPβ of 0.84. The compound further showed an Aβ42 in the assay on Aβ42 of 0.93. For the same compound, the Aβ38 in the assay with Aβ38 is listed as 1.08. Besides, the Aβ43 in the assay with Aβ43 was 0.82. Also, the sAPPα in the assay with sAPPα worked out at 0.81.

Consider `CN(C)CCOC(c1ccccc1)c1ccccc1` [compound 14, diphenhydramine], for which, in the assay with sAPPβ, the sAPPβ came out at 1.02. The compound further registered an Aβ42 in the assay on Aβ42 of 0.98. In addition, the Aβ38 in the assay on Aβ38 amounted to 1.06. For the same compound, in the assay on Aβ43, the Aβ43 came out at 0.97. Moreover, the sAPPα in the assay on sAPPα was 0.97.

Turning to `CNCCCN1c2ccccc2CCc2ccccc21` [compound 13, DESIPRAMINE], the sAPPβ in the assay on sAPPβ stood at 1.01. Besides, the Aβ42 in the assay on Aβ42 is given as 0.94. The Aβ43 with Aβ43 turned out to be 0.9. The same compound gave a sAPPα in the assay on sAPPα of 0.83.

`CN(C)CCCN1c2ccccc2CCc2ccccc21` [compound 17, IMIPRAMINE]: the sAPPβ with sAPPβ was found to be 1.2. In the assay on Aβ38, the Aβ38 is 1.12. In the assay with Aβ43, this compound returned an Aβ43 of 1.27.

These data come from patent publication US11026942B2, “Agent for preventing and/or treating Alzheimer's disease” (KYOTO UNIVERSITY, priority 2015, dated 2021).
